Test results: patent publication US20050158264A1, “Sympathetic nerve-stimulating fragrant compositions” (SHISEIDO COMPANY, LTD., priority 2000, published 2005)
Counter-ions that a name gives are not always drawn.

Columns and labels:
[1] = system: sympathetic nerves; test: Measurement of sympathetic nerve activity by systolic blood pressure fluctuation analysis (FLUCLET) while smelling fragrance; format: in vivo; conditions: subjects smelling fragrance 3 minutes vs 3 minutes without fragrance, FIG. 1-4
Description: Cardiac rate intervals (heartbeat intervals) and blood pressure changes (fluctuations) are complex even during resting periods, and are governed by several systems including the sympathetic and parasympathetic nervous systems. It is known that frequency analysis of heartbeat intervals and blood pressure fluctuations can used to calculate the activity of each of these systems. The high-frequency component of cardiac rate fluctuation indicates parasympathetic nerve activity while the low-frequency component indicates the combined activity of the sympathetic and parasympathetic nervous systems, and the low-frequency component of blood pressure fluctuation indicates sympathetic nerve activity (from material by Dainippon Pharmaceutical Co.). Sympathetic nerve activity was measured by analysis of systolic blood pressure fluctuation using an autonomic nervous system activity analysis system (FLUCLET, product of Dainippon Pharmaceutical Co.). Subjects were allowed to rest for 5 minutes in a thermostatic room at room temperature (24° C.), the blood pressure value was measured on the upper arm and used to correct the blood pressure value at the wrist, and then the wrist blood pressure was continuously measured thereafter. Cotton was placed under the nostrils at the start of measurement, the blood pressure was measured for 3 minutes without fragrant substance, and then the nose cotton was impregnated with fragrant substance and the blood pressure was measured for 3 minutes.

[2] = system: uncoupling protein-3; conditions: 70 mg subcutaneous tissue from 6-week-old rats; caffeine 1 mM, noradrenaline 0.5 μg/ml; FIG. 6

Molecule	effect of fragrance on relative sympathetic nerve activity (in words) [1]	expression of uncoupling protein-3 [2]
CCOC(=O)CC(O)(CC(=O)OCC)C(=O)OCC [TEC, triethyl citrate, reference compound]	no change	
O=C(OCc1ccccc1)c1ccccc1 [benzyl benzoate]	increased effect of sympathetic nerve activity	
Cn1c(=O)c2c(ncn2C)n(C)c1=O [caffeine]		increased expression
C=C(C)[C@H]1CC=C(C)CC1 [limonene]	increased effect of sympathetic nerve activity	
C=CC(=C)CCC=C(C)C [myrcene]	increased effect of sympathetic nerve activity	
pinene	increased effect of sympathetic nerve activity	
